# Source: patent US10336755B2, “Fused pyrazole derivatives, preparation method thereof, and use thereof in treatment of cancers, inflammation and immune diseases” (Beijing InnoCare Pharma Tech Co., Ltd., priority 2016, dated 2019)
# Target: Bruton tyrosine kinase (BTK) (Homo sapiens (Human), UniProt Q06187)
# Assay: BTK Enzyme Activity Testing (in vitro kinase assay, ADP-Glo kinase assay kit)
# Format: biochemical
# Conditions: BTK kinase (full length with His-Tag), 50 uM ATP in substrate solution, 30 min pre-incubation, 60 min reaction, 10 concentration points
# Procedure: An in vitro kinase assay is used to evaluate the effect of the inventive compounds on Bruton tyrosine kinase (BTK) activity.
# The experimental method is generally described as follows:
# In vitro activity of BTK is measured by detecting ADP produced in a kinase reaction with an ADP-Glo™ kinase assay kit from Promega Company. In the kinase assay, the kinase consumes ATP to phosphorylate the substrate, while producing ADP. ADP-Glo reagent then terminates the kinase reaction and completely consumes the remaining ATP. Finally, a kinase detection reagent is added to convert generated ADP into new ATP. Luciferase in the detection reagent is capable of catalyzing fluorescein with the participation of ATP and O2 to produce oxidized fluorescein, AMP, and generate light quantum, thereby converting a chemical signal into an optical signal (Luminecence). The intensity of optical signal is positively correlated with the production of ADP in the kinase reaction, so that the activity of kinase BTK can be thereby quantitatively determined.
# All assays are conducted at a constant temperature of 23° C., using a Corning 3674 Type white 384-well plate; the BTK kinase (full length with His-Tag) is expressed and purified internally by the company; the substrate of kinase is polypeptide (4:1 Glu,Tyr) (from SignalChem) and ATP (from Sigma); and a microplate reader EnVision (Perkin Elmer) is used for reading an optical signal. The assay buffer includes 40 mM Tris-HCl (pH 7.5), 10 mM MgCl2 (Sigma), 2 mM MnCl2 (Sigma), 0.05 mM DTT (Sigma), and 0.01% BSA (Sigma); the BTK kinase is diluted with the assay buffer to a concentration of 1.6 ng/uL as a kinase reaction solution; and the substrate reaction solution comprises 0.2 mg/mL polypeptide substrate and 50 uM ATP.
# Compound's IC50 is calculated from 10 concentration points by the following method. The compound is dissolved and diluted in 100% DMSO to a concentration of 1 mM, followed by a serial 3× dilution with DMSO to a minimum concentration of 0.05 uM. Each concentration stock is further diluted 40× with the assay buffer. To a 384-well assay plate are added 1 uL of a series of compound solutions and 2 uL of the kinase reaction solution, followed by mixing homogeneously, and incubating in the dark at room temperature. After in the dark for 30 min, 2 uL of the substrate reaction solution is added to allowed the total reaction volume to 5 uL. The reaction mixture is incubated in the dark at room temperature in the dark for another 60 min. An equal volume of 5 uL ADP-Glo™ reagent is then added to terminate the reaction. The resulting mixture is homogeneously mixed, and stands at room temperature for 40 min. Finally, 10 uL of the kinase detection reagent is added, stands at room temperature for 30 min, and then a value is read on Envision.
# Percent inhibition is calculated based on the following equation: Inhibition %=[1−(RLUcompound−RLUmin)/(RLUmax−RLUmin)]×100 wherein RLUcompound is the luminescence reading at a given concentration of compound, RLUmin is the luminescence reading in the absence of kinase, and RLUmax is the luminescence reading in the absence of compound. IC50 of the compound is calculated by using a XLfit program in Excel.
# Chain of Bruton tyrosine kinase (BTK) (Q06187 whole entry): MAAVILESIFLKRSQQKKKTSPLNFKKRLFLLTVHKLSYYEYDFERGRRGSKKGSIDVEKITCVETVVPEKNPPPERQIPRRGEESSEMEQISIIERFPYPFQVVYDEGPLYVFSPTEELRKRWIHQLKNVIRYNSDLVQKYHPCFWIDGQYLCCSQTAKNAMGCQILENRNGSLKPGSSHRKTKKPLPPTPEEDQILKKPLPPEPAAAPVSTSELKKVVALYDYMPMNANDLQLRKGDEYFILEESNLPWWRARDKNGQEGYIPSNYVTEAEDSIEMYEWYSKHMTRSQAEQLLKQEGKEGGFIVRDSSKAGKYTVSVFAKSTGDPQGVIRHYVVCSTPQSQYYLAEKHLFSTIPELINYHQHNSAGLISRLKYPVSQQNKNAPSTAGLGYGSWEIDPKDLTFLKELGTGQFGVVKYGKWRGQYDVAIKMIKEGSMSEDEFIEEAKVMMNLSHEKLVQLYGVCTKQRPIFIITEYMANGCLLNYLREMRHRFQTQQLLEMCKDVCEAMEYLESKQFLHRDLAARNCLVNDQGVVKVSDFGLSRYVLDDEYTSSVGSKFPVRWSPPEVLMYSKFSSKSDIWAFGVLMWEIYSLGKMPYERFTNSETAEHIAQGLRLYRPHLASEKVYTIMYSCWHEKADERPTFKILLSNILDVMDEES
row,Compound,IC50 [µM]
1,"C=CC(=O)N1CCCC(c2cc(-c3ccc(Oc4ccccc4)cc3)c3[nH]ncc3c2)C1 (centres unmarked) [Compound 20, 1-(3-(7-(4-phenoxyphenyl)-1H-indazol-5-yl)piperidin-1-yl)prop-2-en-1-one]",< 0.1
2,"C=CS(=O)(=O)N1CCCC(c2cc3cn[nH]c3c(-c3ccc(Oc4ccccc4)cc3)n2)C1 (centres unmarked) [Compound 5, 7-(4-phenoxyphenyl)-5-(1-(ethenylsulfonyl)piperidin-3-yl)-1H-pyrazolo[3,4-c]pyridine]",< 0.1
3,"C=CC(=O)N1CCCC(c2cc3cn[nH]c3c(-c3ccc(OC4COC4)cc3)n2)C1 (centres unmarked) [Compound 2, 1-(3-(7-(4-(oxetan-3-oxy)phenyl)-1H-pyrazolo[3,4-c]pyridin-5-yl)piperidin-1-yl)prop-2-en-1-one]",0.1 to 0.5
4,"C=CC(=O)N1CCC(Nc2cc3cn[nH]c3c(-c3ccc(Oc4ccccc4)cc3)n2)C1 (centres unmarked) [Compound 11, 1-(3-((7-(4-phenoxyphenyl)-1H-pyrazolo[3,4-c]pyridin-5-yl)amino)pyrrolidin-1-yl)prop-2-en-1-one]",< 0.1
5,"C=CC(=O)N1CCCC(c2cc3cn[nH]c3c(-c3ccc(Oc4ccccc4)cc3)n2)C1 (centres unmarked) [Compound 3, 1-(3-(7-(4-phenoxyphenyl)-1H-pyrazolo[3,4-c]pyridin-5-yl)piperidin-1-yl)prop-2-en-1-one]",< 0.1
6,"C=CC(=O)N1CCC(c2cc3cn[nH]c3c(-c3ccc(CN4CCCC4)cc3)n2)CC1 [Compound 16, 1-(4-(7-(4-(pyrrolidin-1-ylmethyl)phenyl)-1H-pyrazolo[3,4-c]pyridin-5-yl)piperidin-1-yl)prop-2-en-1-one]",> 0.5
7,"CC#CC(=O)N1CCCC(c2cc3cn[nH]c3c(-c3ccc(Oc4ccccc4)cc3)n2)C1 (centres unmarked) [Compound 17, 1-(3-(7-(4-phenoxyphenyl)-1H-pyrazolo[3,4-c]pyridin-5-yl)piperidin-1-yl)but-2-yn-1-one]",0.1 to 0.5
8,"C=CC(=O)N1CCN(c2cc3cn[nH]c3c(-c3ccc(Oc4ccccc4)cc3)n2)CC1 [Compound 9, 1-(4-(7-(4-phenoxyphenyl)-1H-pyrazolo[3,4-c]pyridin-5-yl)piperazin-1-yl)prop-2-en-1-one]",< 0.1
9,"C=CC(=O)N1CC[C@@H](c2cc3cn[nH]c3c(-c3ccc(Oc4ccccc4)cc3)n2)C1 [Compound 22b, (R)-1-(3-(7-(4-phenoxyphenyl)-1H-pyrazolo[3,4-c]pyridin-5-yl)pyrrolidin-1-yl)prop-2-en-1-one]",< 0.1
10,"CC#CC(=O)N1CCC(c2cc3cn[nH]c3c(-c3ccc(C(=O)Nc4ccccn4)cc3)n2)C1 (centres unmarked) [Compound 19, 4-(5-(1-(but-2-ynoyl)pyrrolidin-3-yl)-1H-pyrazolo[3,4-c]pyridin-7-yl)-N-(pyridin-2-yl)benzamide]",0.1 to 0.5
11,"C=CC(=O)N1CCC(c2cc3cn[nH]c3c(-c3ccc(Oc4ccccn4)cc3)n2)CC1 [Compound 13, 1-(4-(7-(4-(pyridin-2-oxy)phenyl)-1H-pyrazolo[3,4-c]pyridin-5-yl)piperidin-1-yl)prop-2-en-1-one]",< 0.1
12,"C=CC(=O)N1CCCC(c2cc3cn[nH]c3c(-c3ccc(CN4CCOCC4)cc3)n2)C1 (centres unmarked) [Compound 1, 1-(3-(7-(4-(morpholinomethyl)phenyl)-1H-pyrazolo[3,4-c]pyridin-5-yl)piperidin-1-yl)prop-2-en-1-one]",0.1 to 0.5
13,"C=CC(=O)N1CCC(c2cc3cn[nH]c3c(-c3ccc(Oc4cccc(F)c4)cc3)n2)CC1 [Compound 15, 1-(4-(7-(4-(3-fluorophenoxyl)phenyl)-1H-pyrazolo[3,4-c]pyridin-5-yl)piperidin-1-yl)prop-2-en-1-one]",< 0.1
14,"C=CC(=O)N1CCC(c2cc3cn[nH]c3c(-c3ccc(C(=O)Nc4ccccn4)cc3)n2)C1 (centres unmarked) [Compound 18, 4-(5-(1-acryloylpyrrolidin-3-yl)-1H-pyrazolo[3,4-c]pyridin-7-yl)-N-(pyridin-2-yl) benzamide]",< 0.1
15,C=CC(=O)N1CCC(c2cc3cn[nH]c3c(-c3ccc(OC4CCCC4)cc3)n2)CC1 [Compound 12],< 0.1
16,"C=CC(=O)N1CC[C@H](c2cc3cn[nH]c3c(-c3ccc(Oc4ccccc4)cc3)n2)C1 [Compound 22a, (S)-1-(3-(7-(4-phenoxyphenyl)-1H-pyrazolo[3,4-c]pyridin-5-yl)pyrrolidin-1-yl)prop-2-en-1-one]",< 0.1
17,"C=CC(=O)NC1CCN(c2cc3cn[nH]c3c(-c3ccc(Oc4ccccc4)cc3)n2)C1 (centres unmarked) [Compound 10, N-(1-(7-(4-phenoxyphenyl)-1H-pyrazolo[3,4-c]pyridin-5-yl)pyrrolidin-3-yl)acrylamide]",< 0.1
18,"C=CC(=O)N1CCC(c2cc3cn[nH]c3c(-c3ccc(Oc4ccccc4)cc3)n2)CC1 [Compound 7, 1-(4-(7-(4-phenoxyphenyl)-1H-pyrazolo[3,4-c]pyridin-5-yl)piperidin-1-yl)prop-2-en-1-one]",< 0.1
19,"C=CC(=O)N1CCC(c2cc3cn[nH]c3c(-c3ccc(Oc4ccccc4)cc3)n2)C1 (centres unmarked) [Compound 6, 1-(3-(7-(4-phenoxyphenyl)-1H-pyrazolo[3,4-c]pyridin-5-yl)pyrrolidin-1-yl)prop-2-en-1-one]",< 0.1
20,"C=CC(=O)Nc1cccc(-c2cc3cn[nH]c3c(-c3ccc(Oc4ccccc4)cc3)n2)c1 [Compound 8, N-(3-(7-(4-phenoxyphenyl)-1H-pyrazolo[3,4-c]pyridin-5-yl)phenyl)acrylamide]",< 0.1
21,"CN(C)C/C=C/C(=O)N1CCCC(c2cc3cn[nH]c3c(-c3ccc(Oc4ccccc4)cc3)n2)C1 (centres unmarked) [Compound 4, (E)-4-(dimethylamino)-1-(3-(7-(4-phenoxyphenyl)-1H-pyrazolo[3,4-c]pyridin-5-yl)piperidin-1-yl)but-2-en-1-one]",< 0.1
22,"C=CC(=O)N1CCC(c2cc3cn[nH]c3c(-c3ccc(Oc4ccccc4)cc3F)n2)CC1 [Compound 14, 1-(4-(7-(2-fluoro-4-phenoxyphenyl)-1H-pyrazolo[3,4-c]pyridin-5-yl)piperidin-1-yl)prop-2-en-1-one]",< 0.1
23,"C=CC(=O)N1CCCC1c1cc2cn[nH]c2c(-c2ccc(Oc3ccccc3)cc2)n1 (centres unmarked) [Compound 21, 1-(2-(7-(4-phenoxyphenyl)-1H-pyrazolo[3,4-c]pyridin-5-yl)pyrrolidin-1-yl)prop-2-en-1-one]",< 0.1
